From ChEMBL document CHEMBL4765313, “Synthesis, in vitro evaluation and molecular docking of a new class of indolylpropyl benzamidopiperazines as dual AChE and SERT ligands for Alzheimer's disease” (Eur J Med Chem, 2020)
Activity calls are given as the source filed them. The rule behind the calls is not given here.

Tests used:
[1] = system: HEK293; assay: Cytotoxicity against human HEK293 cells assessed as reduction in cell viability incubated for 72 hrs by MTT assay; type: ADME, cell-based; conditions: HEK293, 72 h
[2] = target: Acetylcholinesterase (Homo sapiens, UniProt P22303); assay: Inhibition of human plasma AChE using acetylthiocholine iodide as substrate preincubated for 15 mins followed by substrate addition and measured after 10 mins by Ellman's method; type: cell-free
[3] = target: Sodium-dependent serotonin transporter (Homo sapiens, UniProt P31645); assay: Displacement of [3H]paroxetine from human SERT expressed in human HEK293 cells incubated for 30 mins by liquid scintillation counting analysis; type: cell-based
[4] = Solubility of compound at pH 7.4 at 1 to 100 uM; type: physicochemical; conditions: buffer, pH 7.4, 100 µM; dose 1-100 µM
[5] = system: SH-SY5Y; assay: Cytotoxicity against human SH-SY5Y cells assessed as reduction in cell viability incubated for 72 hrs by MTT assay; type: ADME, cell-based
[6] = system: N2a; assay: Decrease in APP-C99 in mouse N2a cells transfected with human APP695 by Western blot analysis; type: functional, cell-based
[7] = Reduction of beta-Amyloid40 level in mouse N2a cells transfected with human APP695 at 10 uM incubated for 16 hrs by ELISA relative to control; type: functional
[8] = system: N2a; assay: Effect on APP in mouse N2a cells transfected with human APP695 by Western blot analysis; type: functional, cell-based

Acetylcholinesterase, sequence (P22303 whole entry): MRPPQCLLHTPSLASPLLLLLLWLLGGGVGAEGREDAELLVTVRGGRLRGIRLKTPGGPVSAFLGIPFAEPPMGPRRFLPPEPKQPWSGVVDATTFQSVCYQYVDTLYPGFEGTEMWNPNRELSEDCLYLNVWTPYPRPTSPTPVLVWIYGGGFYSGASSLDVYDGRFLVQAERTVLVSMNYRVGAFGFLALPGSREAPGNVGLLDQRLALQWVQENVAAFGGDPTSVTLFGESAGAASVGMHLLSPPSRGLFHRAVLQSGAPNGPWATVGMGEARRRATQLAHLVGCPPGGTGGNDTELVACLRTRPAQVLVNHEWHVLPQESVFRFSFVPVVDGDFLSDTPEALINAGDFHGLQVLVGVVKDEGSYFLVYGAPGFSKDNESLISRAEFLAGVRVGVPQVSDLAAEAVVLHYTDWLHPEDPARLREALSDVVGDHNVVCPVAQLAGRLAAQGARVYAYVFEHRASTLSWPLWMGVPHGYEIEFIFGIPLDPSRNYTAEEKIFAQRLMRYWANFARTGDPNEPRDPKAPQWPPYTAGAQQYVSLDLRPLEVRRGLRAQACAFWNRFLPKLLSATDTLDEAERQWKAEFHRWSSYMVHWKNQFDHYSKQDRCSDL
Sodium-dependent serotonin transporter, sequence (P31645 whole entry): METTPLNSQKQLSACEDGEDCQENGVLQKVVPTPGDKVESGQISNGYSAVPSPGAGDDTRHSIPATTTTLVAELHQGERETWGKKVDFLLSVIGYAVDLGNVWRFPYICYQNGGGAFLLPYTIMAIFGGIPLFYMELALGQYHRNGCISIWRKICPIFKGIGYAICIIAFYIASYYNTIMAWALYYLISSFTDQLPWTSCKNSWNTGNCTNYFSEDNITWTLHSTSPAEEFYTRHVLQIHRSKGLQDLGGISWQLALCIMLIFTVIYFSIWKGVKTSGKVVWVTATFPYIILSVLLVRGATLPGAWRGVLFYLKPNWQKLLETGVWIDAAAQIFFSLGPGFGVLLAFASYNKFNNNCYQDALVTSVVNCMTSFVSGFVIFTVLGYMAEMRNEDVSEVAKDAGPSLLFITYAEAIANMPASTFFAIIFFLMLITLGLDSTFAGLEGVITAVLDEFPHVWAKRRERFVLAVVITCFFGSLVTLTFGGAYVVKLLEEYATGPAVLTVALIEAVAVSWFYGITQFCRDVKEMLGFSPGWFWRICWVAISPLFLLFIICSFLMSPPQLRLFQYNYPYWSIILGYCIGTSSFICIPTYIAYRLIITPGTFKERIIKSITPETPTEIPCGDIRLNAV

Row | SMILES | IC50 [1] [µM] | IC50 [2] [µM] | IC50 [3] [µM] | solubility [4] | IC50 [5] [µM] | inhibition [6] | inhibition at 10 µM [7] [%] | Activity [8]
1 | COc1ccc(C(=O)N2CCN(CC(=O)N3CCN(CCCc4c[nH]c5ccccc45)CC3)CC2)cc1 | 156 | 25.1 | > 1000 | Soluble | 148 |  |  | 
2 | COc1ccc2[nH]cc(CCCN3CCN(C(=O)CN4CCN(C(=O)c5cccc(Br)c5)CC4)CC3)c2c1 | 57 | > 50 | > 1000 | Soluble | 105 |  |  | 
3 | COc1ccc2[nH]cc(CCCN3CCN(C(=O)CN4CCN(C(=O)c5ccc(F)cc5)CC4)CC3)c2c1 | > 200 | > 50 | > 1000 | Soluble | > 200 |  |  | 
4 | O=C(CN1CCN(C(=O)c2ccc(Cl)cc2)CC1)N1CCN(CCCc2c[nH]c3ccccc23)CC1 | 98.2 | 35.2 | > 1000 | Soluble | 139 |  |  | 
5 | O=C(CN1CCN(C(=O)c2ccc(Cl)cc2)CC1)N1CCN(CCCc2c[nH]c3ccc(F)cc23)CC1 | 44.5 | 22.3 | 546 | Soluble | 125 |  |  | 
6 | COc1cccc(C(=O)N2CCN(CC(=O)N3CCN(CCCc4c[nH]c5ccc(OC)cc45)CC3)CC2)c1 | > 200 | > 50 | > 1000 | Soluble | > 200 |  |  | 
7 | COc1ccc2[nH]cc(CCCN3CCN(C(=O)CN4CCN(C(=O)c5ccc(Br)cc5)CC4)CC3)c2c1 | 80.5 | > 50 | > 1000 | Soluble | 150 |  |  | 
8 | Cc1ccc(C(=O)N2CCN(CC(=O)N3CCN(CCCc4c[nH]c5ccccc45)CC3)CC2)cc1 | 158 | 29.4 | > 1000 | Soluble | > 200 |  |  | 
9 | COc1ccc2[nH]cc(CCCN3CCN(C(=O)CN4CCN(C(=O)c5cccc(Cl)c5)CC4)CC3)c2c1 | 143 | > 50 | > 1000 | Soluble | > 200 |  |  | 
10 | O=C(CN1CCN(C(=O)c2ccc(Br)cc2)CC1)N1CCN(CCCc2c[nH]c3ccccc23)CC1 | 71.9 | 35.7 | > 1000 | Soluble | 59.3 |  |  | 
11 | O=C(CN1CCN(C(=O)c2cccc(Cl)c2)CC1)N1CCN(CCCc2c[nH]c3ccc(F)cc23)CC1 | 66.2 | 18.4 | 149 | Soluble | 59.8 |  |  | 
12 | O=C(CN1CCN(C(=O)c2cccc(F)c2)CC1)N1CCN(CCCc2c[nH]c3ccccc23)CC1 | 182 | > 50 | > 1000 | Soluble | 165 |  |  | 
13 | O=C(CN1CCN(C(=O)c2ccc(F)cc2)CC1)N1CCN(CCCc2c[nH]c3ccc(F)cc23)CC1 | 102 | 3.4 | 212 | Soluble | 121 |  |  | 
14 | O=C(CN1CCN(C(=O)c2cccc(Cl)c2)CC1)N1CCN(CCCc2c[nH]c3ccccc23)CC1 | 99.1 | 32.4 | > 1000 | Soluble | 120 |  |  | 
15 | O=C(CN1CCN(C(=O)c2cccc(Br)c2)CC1)N1CCN(CCCc2c[nH]c3ccccc23)CC1 | 80.7 | 23 | > 1000 | Soluble | 80.5 | Active | 50 | inactive
16 | O=C(CN1CCN(C(=O)c2cccc(Br)c2)CC1)N1CCN(CCCc2c[nH]c3ccc(F)cc23)CC1 | 40.6 | 37.3 | 181 | Soluble | 71.6 |  |  | 
17 | COc1ccc2[nH]cc(CCCN3CCN(C(=O)CN4CCN(C(=O)c5ccccc5)CC4)CC3)c2c1 | > 200 | > 50 | > 1000 | Soluble | > 200 |  | 37 | 
18 | CN(C)CCCC1(c2ccc(F)cc2)OCc2cc(C#N)ccc21 (stereo not drawn) [CITALOPRAM] | > 200 | 73.3 |  |  | > 200 |  |  | 

Row | SMILES | IC50 [1] [µM] | IC50 [2] [µM] | IC50 [3] [µM] | solubility [4] | IC50 [5] [µM] | inhibition [6] | inhibition at 10 µM [7] [%] | Activity [8]
19 | O=C(CN1CCN(C(=O)c2ccccc2)CC1)N1CCN(CCCc2c[nH]c3ccccc23)CC1 | > 200 | > 50 | > 1000 | Soluble | > 200 |  |  | 
20 | COc1cccc(C(=O)N2CCN(CC(=O)N3CCN(CCCc4c[nH]c5ccc(F)cc45)CC3)CC2)c1 | 87.1 | 19.4 | 83 | Soluble | 79.4 |  |  | 
21 | COc1ccc(C(=O)N2CCN(CC(=O)N3CCN(CCCc4c[nH]c5ccc(F)cc45)CC3)CC2)cc1 | 141 | 14.4 | 133 | Soluble | 161 |  |  | 
22 | O=C(CN1CCN(C(=O)c2ccc(Br)cc2)CC1)N1CCN(CCCc2c[nH]c3ccc(F)cc23)CC1 | 60.5 | 39.4 | 9.2 | Soluble | 47.4 |  |  | 
23 | COc1ccc2[nH]cc(CCCN3CCN(C(=O)CN4CCN(C(=O)c5cccc(F)c5)CC4)CC3)c2c1 | > 200 | 37.3 | > 1000 | Soluble | > 200 |  |  | 
24 | O=C(CN1CCN(C(=O)c2ccc(F)cc2)CC1)N1CCN(CCCc2c[nH]c3ccccc23)CC1 | 141 | 39.4 | > 1000 | Soluble | 188 |  |  | 
25 | O=C(CN1CCN(C(=O)c2ccccc2Br)CC1)N1CCN(CCCc2c[nH]c3ccc(F)cc23)CC1 | 77.1 | 33.3 | 1.9 | Soluble | 79.1 |  |  | 
26 | COc1ccc(C(=O)N2CCN(CC(=O)N3CCN(CCCc4c[nH]c5ccc(OC)cc45)CC3)CC2)cc1 | 190 | > 50 | > 1000 | Soluble | 190 |  |  | 
27 | O=C(CN1CCN(C(=O)c2ccccc2)CC1)N1CCN(CCCc2c[nH]c3ccc(F)cc23)CC1 | 148 | > 50 | 320 | Soluble | 146 |  |  | 
28 | COc1ccc2[nH]cc(CCCN3CCN(C(=O)CN4CCN(C(=O)c5ccc(Cl)cc5)CC4)CC3)c2c1 | 117 | > 50 | > 1000 | Soluble | 158 |  |  | 
29 | COc1cc2c(cc1OC)C(=O)C(CC1CCN(Cc3ccccc3)CC1)C2 (stereo not drawn) [DONEPEZIL] |  |  | > 1000 |  |  |  |  | 
30 | COc1ccc2[nH]cc(CCCN3CCN(C(=O)CN4CCN(C(=O)c5ccccc5Br)CC4)CC3)c2c1 | 163 | > 50 | > 1000 | Soluble | 111 |  |  | 
31 | O=C(CN1CCN(C(=O)c2ccccc2F)CC1)N1CCN(CCCc2c[nH]c3ccccc23)CC1 | 133 | 20.2 | > 1000 | Soluble | 82.6 |  |  | 
32 | COc1ccc2[nH]cc(CCCN3CCN(C(=O)CN4CCN(C(=O)c5ccc(C)cc5)CC4)CC3)c2c1 | 147 | > 50 | > 1000 | Soluble | > 200 |  |  | 
33 | Cc1ccc(C(=O)N2CCN(CC(=O)N3CCN(CCCc4c[nH]c5ccc(F)cc45)CC3)CC2)cc1 | 141 | 3.6 | 122 | Soluble | 119 |  |  | 
34 | COc1cccc(C(=O)N2CCN(CC(=O)N3CCN(CCCc4c[nH]c5ccccc45)CC3)CC2)c1 | 143 | > 50 | > 1000 | Soluble | > 200 |  |  | 
35 | O=C(CN1CCN(C(=O)c2cccc(F)c2)CC1)N1CCN(CCCc2c[nH]c3ccc(F)cc23)CC1 | 83 | > 50 | 69 | Soluble | 169 |  |  | 
